# Assay results from US11485731B2, “Compounds and methods useful in the treatment of a PRMT5-mediated disorder” (ARGONAUT THERAPEUTICS LIMITED, priority 2017, dated 2022).
# Biological target: human PRMT5/MEP50 (Homo sapiens (Human), UniProt O14744)
# Assay: PRMT5 chemiluminescent assay
# Format: biochemical
# Conditions: human PRMT5/MEP50 expressed in HEK293 cells; biotinylated histone peptides; Histone H4 monomethyl R3 antibody; chemiluminescent readout
# Experimental: A PRMT5 chemiluminescent assay was used to measure the IC50 activity of PRMT5 of the compounds of Examples 1A to 7 above. Biotinylated histone peptides were synthesized and attached to 384-well plates. Compound serial dilutions were performed and added to the assay plate. Histone H4 monomethyl R3 antibody was obtained from Abcam. A master mix for each well was prepared and human PRMT5/MEP50 (expressed in HEK293 cells) diluted in assay buffer to a concentration of 5 ng/μL. The reaction was incubated and slowly rotated for 60 minutes at the point of PRMT5/MEP50 addition. The supernatant from the wells was removed and blocking buffer was added to each well and rotated for 10 minutes. The primary antibody was diluted and added to every well for 60 minutes, before it was removed and the wells washed. The horse raddish peroxidase (HRP)-coupled secondary antibody was diluted and added to each well with an incubation time of 30 minutes. The HRP chemiluminescent substrate was added to every well. The plate was read on a Flourstar Omega BMG Labtech instrument (Ortenberg, Germany) and the analysis of IC50 was performed using the Flourstar Omega BMG Labtech software.
# Sequence of human PRMT5/MEP50 (O14744 whole entry): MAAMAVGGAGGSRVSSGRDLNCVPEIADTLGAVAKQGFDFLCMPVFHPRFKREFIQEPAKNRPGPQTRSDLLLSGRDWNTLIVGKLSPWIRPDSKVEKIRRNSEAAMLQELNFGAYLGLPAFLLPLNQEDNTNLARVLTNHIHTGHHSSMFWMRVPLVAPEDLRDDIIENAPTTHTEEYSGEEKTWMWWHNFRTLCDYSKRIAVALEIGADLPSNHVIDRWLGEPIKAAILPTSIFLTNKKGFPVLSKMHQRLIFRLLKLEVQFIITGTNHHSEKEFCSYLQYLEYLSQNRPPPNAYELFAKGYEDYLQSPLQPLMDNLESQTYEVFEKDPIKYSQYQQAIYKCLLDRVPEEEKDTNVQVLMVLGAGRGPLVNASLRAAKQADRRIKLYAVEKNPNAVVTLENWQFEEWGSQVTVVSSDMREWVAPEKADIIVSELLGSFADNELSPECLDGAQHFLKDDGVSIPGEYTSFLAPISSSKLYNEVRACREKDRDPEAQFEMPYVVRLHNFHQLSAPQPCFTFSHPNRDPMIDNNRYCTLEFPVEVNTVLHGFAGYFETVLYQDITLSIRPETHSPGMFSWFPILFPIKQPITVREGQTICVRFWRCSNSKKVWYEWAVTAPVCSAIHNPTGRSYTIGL
# Sequence of human PRMT5/MEP50 (Q9BQA1 whole entry partner): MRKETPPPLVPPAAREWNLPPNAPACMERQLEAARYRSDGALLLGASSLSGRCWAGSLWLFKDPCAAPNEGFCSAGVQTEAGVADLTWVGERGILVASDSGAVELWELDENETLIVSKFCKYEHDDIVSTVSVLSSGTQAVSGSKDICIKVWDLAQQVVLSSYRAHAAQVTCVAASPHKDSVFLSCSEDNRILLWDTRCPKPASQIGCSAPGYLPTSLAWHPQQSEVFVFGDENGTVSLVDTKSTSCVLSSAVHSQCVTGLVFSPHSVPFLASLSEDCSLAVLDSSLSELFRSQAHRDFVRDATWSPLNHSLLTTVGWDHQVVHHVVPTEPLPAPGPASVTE
row,Compound,IC50 [µM]
1,"O=C(NCC(O)CN1CCc2ccccc2C1)N1CCC(c2ccccc2)C1 (stereo not drawn) [Example 1A, N-(3-(3,4-dihydroisoquinolin-2(1H)-yl)-2-hydroxypropyl)-3-phenylpyrrolidine-1-carboxamide]",0.29
2,"O=C(NCC(O)CN1CCc2sccc2C1)N1CCc2ccccc2C1 (stereo not drawn) [Example 1AA, N-(3-(6,7-dihydrothieno[3,2-c]pyridin-5(4H)-yl)-2-hydroxypropyl)-3,4-dihydroisoquinoline-2(1H)-carboxamide]",0.342
3,"O=C(NCC(O)CN1CCc2sccc2C1)N1CCCC(c2ccccc2)C1 (stereo not drawn) [Example 1AC, N-(3-(6,7-dihydrothieno[3,2-c]pyridin-5(4H)-yl)-2-hydroxypropyl)-3-phenylpiperidine-1-carboxamide]",0.384
4,"O=C(NCC(O)CN1CCc2ccsc2C1)N1CCCC(c2ccccc2)C1 (stereo not drawn) [Example 1AD, N-(3-(4,7-dihydrothieno[2,3-c]pyridin-6(5H)-yl)-2-hydroxypropyl)-3-phenylpiperidine-1-carboxamide]",0.652
5,"O=C(NCC(O)CN1CCc2sccc2C1)N1CCC(c2ccccc2)C1 (stereo not drawn) [Example 1AE, N-(3-(6,7-dihydrothieno[3,2-c]pyridin-5(4H)-yl)-2-hydroxypropyl)-3-phenylpyrrolidine-1-carboxamide]",0.072
6,"O=C(NC[C@H](O)CN1CCc2ccccc2C1)N1CCCC(c2ccccc2)C1 (stereo partly drawn) [Example 1AG, (S)-N-((S)-3-(3,4-dihydroisoquinolin-2(1H)-yl)-2-hydroxypropyl)-3-phenylpiperidine-1-carboxamide]",0.185
7,"O=C(NC[C@@H](O)CN1CCc2ccccc2C1)N1CCC[C@@H](c2ccccc2)C1 [Example 1AI, (S)-N-((R)-3-(3,4-dihydroisoquinolin-2(1H)-yl)-2-hydroxypropyl)-3-phenylpiperidine-1-carboxamide]",3.22
8,"O=C(NC[C@H](O)CN1CCc2ccccc2C1)N1CCCc2ccccc21 [Example 1AJ, (S)-N-(3-(3,4-dihydroisoquinolin-2(1H)-yl)-2-hydroxypropyl)-3,4-dihydroquinoline-1(2H)-carboxamide]",0.08
9,"O=C(NC[C@@H](O)CN1CCc2ccccc2C1)N1CCCc2ccccc21 [Example 1AK, (R)-N-(3-(3,4-dihydroisoquinolin-2(1H)-yl)-2-hydroxypropyl)-3,4-dihydroquinoline-1(2H)-carboxamide]",5.98
10,"O=C(NC[C@H](O)CN1CCc2ccccc2C1)N1CCc2ccccc2C1 [Example 1AL, (S)-N-(3-(3,4-dihydroisoquinolin-2(1H)-yl)-2-hydroxypropyl)-3,4-dihydroisoquinoline-2(1H)-carboxamide]",0.03
11,"O=C(NC[C@@H](O)CN1CCc2ccccc2C1)N1CCc2ccccc2C1 [Example 1AM, (R)-N-(3-(3,4-dihydroisoquinolin-2(1H)-yl)-2-hydroxypropyl)-3,4-dihydroisoquinoline-2(1H)-carboxamide]",1.5
12,"O=C(NC[C@H](O)CN1CCc2ccccc2C1)N1CCC[C@@H](c2ccccc2)C1 [Example 1AN, (S)-N-((S)-3-(3,4-dihydroisoquinolin-2(1H)-yl)-2-hydroxypropyl)-3-phenylpiperidine-1-carboxamide]",0.014
13,"O=C(NC[C@H](O)CN1CCc2ccccc2C1)N1CCC[C@H](c2ccccc2)C1 [Example 1AO, (R)-N-((S)-3-(3,4-dihydroisoquinolin-2(1H)-yl)-2-hydroxypropyl)-3-phenylpiperidine-1-carboxamide]",0.009
14,"CC(=O)N1CCCN(C(=O)NC[C@H](O)CN2CCc3ccccc3C2)CC1 [Example 1AP, (S)-4-acetyl-N-(3-(3,4-dihydroisoquinolin-2(1H)-yl)-2-hydroxypropyl)-1,4-diazepane-1-carboxamide]",0.484
15,"CS(=O)(=O)N1CCCN(C(=O)NC[C@H](O)CN2CCc3ccccc3C2)CC1 [Example 1AQ, (S)-N-(3-(3,4-dihydroisoquinolin-2(1H)-yl)-2-hydroxypropyl)-4-(methylsulfonyl)-1,4-diazepane-1-carboxamide]",0.077
